Structures are written as SMILES. Converted amounts (≈) assume the structure as drawn. “And” between values parts separate entries of the source, which are not always exact repeats. Identical values can stand only once. Where only a bound is given, the exact number is not on record here.

One assay deals with K. pneumoniae S 21. As to the kind of experiment: Antibacterial activity (MIC), agar dilution per CLSI. The conditions noted are these: Klebsiella pneumoniae, S21. The class given is cell-based. How it is done: (§1) The biological activity of representative compounds according to the invention against various bacterial strains was investigated. In a typical study, overnight grown bacterial cultures were diluted appropriately and inoculated on the agar media containing doubling dilutions of the test compounds. Observations for growth or no growth was performed after 16-20 hours of incubation at 35±2° C. in the ambient air. The overall procedure was performed as per Clinical and Laboratory Standards Institute (CLSI) recommendations, (Clinical and Laboratory Standards Institute (CLSI), Performance Standards for Antimicrobial Susceptibility Testing, 20th Informational Supplement, M07-A9, Volume 32, No. 2, 2012). Molten Mueller Hinton Agar (BD, USA) containing serial dilutions of each antibacterial agent were poured on to the plates and allowed to solidify. Appropriate suspensions from the freshly grown cultures were prepared in normal saline so that about 10^4 CFU/spot of the organism was delivered on to the drug containing agar plates using automated multipoint inoculator (Mast, UK). The plates were incubated in Biochemical oxygen demand (BOD) incubator at 37° C. for 18 hours and then examined for growth.
(§2) Table 3 details the antibacterial activity of representative compound of Formula (I), (2S,5R)-sulfuric acid mono-{2-[N′-(2-(S)-pyrrolidin-2-yl-acetyl)-hydrazinocarbonyl]-7-oxo-1,6-diaza-bicyclo[3.2.1]oct-6-yl}ester (Compound of Example 1), against various Multi Drug Resistant (MDR) Gram-negative bacterial strains. The activities are expressed as Minimum Inhibitory Concentrations (MICs) (mcg/ml).

A further assay deals with K. pneumoniae H 525. The description is as above. The format is cell-based. As to conditions: Klebsiella pneumoniae, H525. How it is done: as §1, §2
For the next assay, the system named is E. coli 7 MP. The assay is described as above. The conditions noted are these: Escherichia coli. The class given is cell-based. How it is done:
as §1, §2

A further assay deals with P. aeruginosa R 20. The description is as above. The class given is cell-based. As to conditions: Pseudomonas aeruginosa, R20. How it is done:
as §1, §2

In another assay the test system is E. coli NCTC 13352. The description is as above. The format is cell-based. As to conditions: Escherichia coli, NCTC13352. The method, then:
as §1, §2

In the next assay the test system is C. frundaii 58 MP. Described as above. The class given is cell-based. How it is done: as §1, §2
For the next assay, the system named is P. aeruginosa 2779. Described as above. The format is cell-based. The conditions noted are these: Pseudomonas aeruginosa. The method, then:
as §1, §2

The next assay relates to E. coli M 50. The description is as above. The format is cell-based. The conditions noted are these: Escherichia coli, M50. The method, then:
as §1, §2

The subject of a further assay is E. cloacae M 20. The assay is described as above. The class given is cell-based. The conditions noted are these: Enterobacter cloacae, M20. How it is done:
as §1, §2

For the next assay, the system named is E. coli NCTC 13351. Described as above. The class given is cell-based. As to conditions: Escherichia coli, NCTC13351. The method, then: as §1, §2
In the next assay the test system is P. aeruginosa PAO1. The assay is described as above. The conditions noted are these: Pseudomonas aeruginosa. The class given is cell-based. The method, then:
as §1, §2

Another assay relates to E. coli M 49. The assay is described as above. The format is cell-based. As to conditions: Escherichia coli, M49. How it is done:
as §1, §2

The next assay deals with P. aeruginosa ATCC 27853. The description is as above. The class given is cell-based. As to conditions: Pseudomonas aeruginosa, ATCC27853. The method, then: as §1, §2
Assay [1] addresses T1, Class A beta-lactamase SHV 18 (K. pneumoniae ATCC 700603) (Klebsiella pneumoniae, UniProt P0AD64, E235K/G234A/I4F/R39S).
T1 sequence (P0AD64 1-286 I4F/R39S/G234A/E235K): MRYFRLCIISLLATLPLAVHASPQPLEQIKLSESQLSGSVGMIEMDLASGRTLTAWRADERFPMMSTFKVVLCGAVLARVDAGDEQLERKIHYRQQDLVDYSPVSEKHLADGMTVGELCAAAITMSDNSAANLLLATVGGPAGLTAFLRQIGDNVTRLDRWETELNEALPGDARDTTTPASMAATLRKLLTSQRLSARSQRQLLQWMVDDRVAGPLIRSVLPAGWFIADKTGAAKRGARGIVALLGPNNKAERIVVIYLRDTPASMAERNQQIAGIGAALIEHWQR
As to the kind of experiment: Beta-lactamase enzyme inhibition (Nitrocefin, crude enzyme). The class given is biochemical. The conditions noted are these: Class A, K. pneumoniae ATCC 700603 (SHV 18); read-out: Beta-lactamase enzyme inhibition IC50. The method, then:
(§3) Absorbance was measured at 485 nm by UV-spectrophotometer. The IC50 was calculated by plotting absorbance against concentration through Sigmoidal dose response curve using Graph Pad software.
The enzyme inhibition was expressed as IC50.

In assay [2] the test system is E. coli NCTC 13353 (CTX-M15, OXA-1). As to the kind of experiment: Antibacterial activity (MIC), agar dilution per CLSI. The format is cell-based. The conditions noted are these: Escherichia coli, NCTC13353; E. coli NCTC 13353 (CTX-M15, OXA-1); read-out: MIC. The method, then: as §1
(§4) The strains selected for study included E. coli NCTC 13353 producing CTX-M15 and OXA-1 beta-lactamase enzymes; K. pneumoniae H521 producing KPC, SHV, TEM beta-lactamase enzymes; and K. pneumoniae S48 producing NDM, SHV, TEM beta-lactamase enzymes. The activities are expressed as Minimum Inhibitory Concentrations (MICs) (mcg/ml).
(§5) The activities are expressed as Minimum Inhibitory Concentrations (MICs) (mcg/ml).

In assay [3] the test system is K. pneumoniae H521 (KPC, SHV, TEM). The description is as above. The class given is cell-based. The conditions noted are these: Klebsiella pneumoniae; K. pneumoniae H521 (KPC, SHV, TEM); read-out: MIC. How it is done:
as §1, §4, §5

Assay [4] concerns the target Class D beta-lactamase OXA 26 (A. baumannii NCTC 13303) (Acinetobacter baumannii, UniProt Q9F0V2). As to the kind of experiment: Beta-lactamase enzyme inhibition (Nitrocefin, crude enzyme). The class given is biochemical. The conditions noted are these: A. baumannii NCTC 13303 (OXA 26), read-out: Beta-lactamase enzyme inhibition IC50. The method, then: as §3
Assay [5] deals with T2, Class C beta-lactamase P99 (E. cloacae J137) (Enterobacter cloacae, UniProt P05364).
T2 construct: preincubated mixture of crude enzyme and the compounds; endogenous in cells; host or cells: E. cloacae J137
T2 sequence (P05364 21-381): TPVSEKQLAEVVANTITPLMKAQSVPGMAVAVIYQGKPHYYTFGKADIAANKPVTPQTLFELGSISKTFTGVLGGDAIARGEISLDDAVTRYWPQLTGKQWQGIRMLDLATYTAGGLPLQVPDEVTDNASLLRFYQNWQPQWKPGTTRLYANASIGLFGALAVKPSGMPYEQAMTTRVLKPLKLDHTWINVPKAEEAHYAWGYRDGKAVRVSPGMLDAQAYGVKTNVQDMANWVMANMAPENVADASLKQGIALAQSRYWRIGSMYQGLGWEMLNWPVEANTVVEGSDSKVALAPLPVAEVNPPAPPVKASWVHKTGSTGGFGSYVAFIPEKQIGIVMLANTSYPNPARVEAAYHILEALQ
Described as above. The class given is biochemical. How it is done:
as §3

Chain of Class D beta-lactamase OXA 26 (A. baumannii NCTC 13303) (Q9F0V2 entry or part of it): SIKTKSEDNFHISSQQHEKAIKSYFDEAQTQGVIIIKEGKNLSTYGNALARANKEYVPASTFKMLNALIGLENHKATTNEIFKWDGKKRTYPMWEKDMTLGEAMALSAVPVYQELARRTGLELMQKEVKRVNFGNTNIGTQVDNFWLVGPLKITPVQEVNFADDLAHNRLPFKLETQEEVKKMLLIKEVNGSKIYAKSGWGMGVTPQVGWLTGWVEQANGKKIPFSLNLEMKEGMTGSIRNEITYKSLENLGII

As to `NC(=O)[C@@H]1CC[C@@H]2CN1C(=O)N2OS(=O)(=O)O` [Avibactam, avibactam, reference compound], the MIC is 16 µg/mL (≈ 60.3 µM) in the assay on K. pneumoniae S 21; 8 µg/mL (≈ 30.2 µM) in the assay with K. pneumoniae H 525; above 64 µg/mL with E. coli 7 MP; above 64 µg/mL against P. aeruginosa R 20; above 64 µg/mL against E. coli NCTC 13352; above 64 µg/mL in the assay with C. frundaii 58 MP. For the same molecule, the MIC was above 64 µg/mL with P. aeruginosa 2779; above 64 µg/mL with E. coli M 50; above 64 µg/mL against E. cloacae M 20; above 64 µg/mL against E. coli NCTC 13351; above 64 µg/mL against P. aeruginosa PAO1; 16 µg/mL (≈ 60.3 µM) in the assay on E. coli M 49. Besides, the MIC against P. aeruginosa ATCC 27853 was above 64 µg/mL; in assay [2] it was 16 µg/mL (≈ 60.3 µM); in assay [3] it was 16 µg/mL (≈ 60.3 µM). In addition, the IC50 in assay [1] was 98 nM and 10 nM; in assay [4] it was 10100 nM; in assay [5], 79 nM.

For the origin of these results see patent publication US9657022B2, “7-OXO-1,6-diazabicyclo[3.2.1]octane derivatives and their use as antibacterial agents” (WOCKHARDT LIMITED, priority 2014, dated 2017).
